From ChEMBL document CHEMBL1151568, “New TXA2/PGH2 receptor antagonists based on the carbacyclin skeleton” (Bioorg Med Chem Lett, 1993)

Tests used:
[1] = target: T1, Thromboxane A2 receptor (Homo sapiens) (UniProt P21731); experiment: TP receptor affinity, expressed as competition factor (CF) which is the ratio of IC50 of test to IC50 of standard
T1 sequence (whole entry): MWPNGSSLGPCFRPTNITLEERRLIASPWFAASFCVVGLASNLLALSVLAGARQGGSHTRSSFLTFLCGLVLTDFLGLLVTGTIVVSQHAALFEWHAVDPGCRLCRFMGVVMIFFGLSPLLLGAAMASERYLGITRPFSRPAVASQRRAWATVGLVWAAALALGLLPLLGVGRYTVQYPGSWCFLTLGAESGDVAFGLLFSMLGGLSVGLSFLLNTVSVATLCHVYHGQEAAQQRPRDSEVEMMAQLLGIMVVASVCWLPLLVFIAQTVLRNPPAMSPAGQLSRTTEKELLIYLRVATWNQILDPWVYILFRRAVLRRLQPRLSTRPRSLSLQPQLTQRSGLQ

[2] = target: T1, Thromboxane A2 receptor (Homo sapiens); experiment: Antiaggregatory potency relative to TP-receptor antagonist SQ 29548; format: functional
Prostacyclin receptor [3] = target: T2, Prostacyclin receptor (Homo sapiens, UniProt P43119); experiment: (§1) Compound was tested for Prostanoid IP receptor affinity and expressed as competition factor (CF) which is the ratio of IC50 of test to IC50 of standard
T2 sequence (P43119 whole entry): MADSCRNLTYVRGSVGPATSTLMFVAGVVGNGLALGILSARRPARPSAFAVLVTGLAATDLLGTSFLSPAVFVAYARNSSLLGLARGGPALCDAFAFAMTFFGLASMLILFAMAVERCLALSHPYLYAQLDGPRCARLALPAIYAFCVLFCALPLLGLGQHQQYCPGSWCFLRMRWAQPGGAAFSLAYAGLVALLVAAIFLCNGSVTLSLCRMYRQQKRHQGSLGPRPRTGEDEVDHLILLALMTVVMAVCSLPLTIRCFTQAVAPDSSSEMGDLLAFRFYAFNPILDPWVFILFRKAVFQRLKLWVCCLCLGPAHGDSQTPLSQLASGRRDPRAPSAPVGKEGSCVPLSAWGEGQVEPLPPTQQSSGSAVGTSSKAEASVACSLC

Homo sapiens [4] = organism: Homo sapiens; experiment: Compound was tested for its ability to inhibit blood platelet aggregation induced by TP-receptor agonist U 46619; format: functional
Homo sapiens [5] = organism: Homo sapiens; experiment: Compound was tested for its ability to inhibit blood platelet aggregation induced by ADP; format: functional
Prostacyclin receptor [6] = target: T2, Prostacyclin receptor; experiment: as §1; remark: listed apart in the source

Row | SMILES | CF [1] | Relative potency [2] | CF (Prostacyclin receptor [3]) | IC50 (Homo sapiens [4]) | IC50 (Homo sapiens [5]) | IC50 (Prostacyclin receptor [6])
1 | O=C(O)CCC/C=C1/C[C@H]2C[C@@H](O)[C@H](/C=N/NC(=O)Nc3ccccc3)[C@H]2C1 | 1.5 | 0.17 | – | – | – | –
2 | O=C(O)CC/C=C1/C[C@H]2C[C@@H](O)[C@H](/C=N/NC(=O)Nc3ccc([N+](=O)[O-])cc3)[C@H]2C1 | 0.5 | 8.3 | – | – | – | –
3 | O=C(O)CCC/C=C1/C[C@H]2CC[C@H](/C=N/NC(=O)Nc3ccccc3)[C@H]2C1 | 3 | 0.002 | – | – | – | –
4 | O=C(O)COC/C=C1\C[C@H]2C[C@@H](O)[C@H](/C=N/NC(=O)Nc3cccc(Cl)c3)[C@H]2C1 | 18 | 0.03 | – | – | – | –
5 | O=C(O)CCC/C=C1/C[C@H]2C[C@@H](O)[C@H](/C=N/OCc3ccc(F)cc3)[C@H]2C1 | 500 | 0.001 | 250 | 14000 nM | – | –
6 | O=C(O)CCC/C=C1/C[C@H]2C[C@@H](O)[C@H](/C=N/NC(=O)Nc3cccc(Cl)c3)[C@H]2C1 | 0.2 | 0.25 | – | – | – | –
7 | O=C(O)CCC/C=C1/C[C@H]2C[C@@H](O)[C@H](/C=N/NC(=O)Nc3ccc(Cl)c(Cl)c3)[C@H]2C1 | 0.1 | 1 | – | – | – | –
8 | O=C(O)COC/C=C1\C[C@H]2C[C@@H](O)[C@H](/C=N/NC(=O)Nc3ccccc3)[C@H]2C1 | 138 | 0.008 | – | – | – | –
9 | O=C(O)CC/C=C1\C[C@H]2C[C@@H](O)[C@H](/C=N/NC(=O)Nc3ccccc3)[C@H]2C1 | 454 | 0.0007 | – | – | – | –
10 | O=C(O)CCC/C=C1\C[C@H]2C[C@@H](O)[C@H](/C=N/OCc3ccccc3)[C@H]2C1 | > 1000 | 0.009 | 7 | 1900 nM | 2000 nM | –
11 | O=C(O)CCC/C=C1/C[C@H]2C[C@@H](O)[C@H](/C=N/OCc3ccccc3)[C@H]2C1 | 470 | 0.001 | 100 | 5400 nM | > 50000 nM | –
12 | O=C(O)CCC/C=C1\C[C@H]2C[C@@H](O)[C@H](/C=N/NC(=O)Nc3ccc([N+](=O)[O-])cc3)[C@H]2C1 | 0.7 | 0.1 | – | – | – | –
13 | O=C(O)CCC/C=C1/C[C@H]2CC[C@H](/C=N/NC(=O)Nc3ccc(Cl)c(Cl)c3)[C@H]2C1 | 1.6 | 0.003 | – | – | – | –
14 | O=C(O)COC/C=C1/C[C@H]2C[C@@H](O)[C@H](/C=N/NC(=O)Nc3cccc(Cl)c3)[C@H]2C1 | 4 | 0.11 | – | – | – | –
15 | O=C(O)CCC/C=C1\C[C@H]2C[C@@H](O)[C@H](/C=N\OC(c3ccccc3)c3ccccc3)[C@H]2C1 | 95 | 0.03 | 160 | 1600 nM | 1000 nM | –
16 | O=C(O)CCC/C=C1/C[C@H]2C[C@@H](O)[C@H](/C=N\OC(c3ccccc3)c3ccccc3)[C@H]2C1 | 210 | 0.001 | – | 23000 nM | – | NC
17 | O=C(O)CC/C=C1\C[C@H]2C[C@@H](O)[C@H](/C=N/NC(=O)Nc3ccc(Cl)c(Cl)c3)[C@H]2C1 | 16 | 0.008 | – | – | – | –
18 | O=C(O)CC/C=C1/C[C@H]2C[C@@H](O)[C@H](/C=N/NC(=O)Nc3ccc(Cl)c(Cl)c3)[C@H]2C1 | 0.8 | 0.33 | – | – | – | –
19 | O=C(O)COC/C=C1\C[C@H]2C[C@@H](O)[C@H](/C=N/NC(=O)Nc3ccc([N+](=O)[O-])cc3)[C@H]2C1 | 9.4 | 0.33 | – | – | – | –
20 | O=C(O)COC/C=C1/C[C@H]2C[C@@H](O)[C@H](/C=N/NC(=O)Nc3ccc(Cl)c(Cl)c3)[C@H]2C1 | 0.7 | 0.33 | – | – | – | –

Row | SMILES | CF [1] | Relative potency [2] | CF (Prostacyclin receptor [3]) | IC50 (Homo sapiens [4]) | IC50 (Homo sapiens [5]) | IC50 (Prostacyclin receptor [6])
21 | O=C(O)CCC/C=C1\C[C@H]2C[C@@H](O)[C@H](/C=N/OCc3ccc4ccccc4c3)[C@H]2C1 | 280 | 0.03 | 31 | 1600 nM | 1100 nM | –
22 | O=C(O)CC/C=C1\C[C@H]2C[C@@H](O)[C@H](/C=N/NC(=O)Nc3cccc(Cl)c3)[C@H]2C1 | 50 | 0.004 | – | – | – | –
23 | O=C(O)COC/C=C1/C[C@H]2C[C@@H](O)[C@H](/C=N/NC(=O)Nc3ccccc3)[C@H]2C1 | 16 | 0.014 | – | – | – | –
24 | O=C(O)CCC/C=C1\C[C@H]2CC[C@H](/C=N/NC(=O)Nc3ccc(Cl)c(Cl)c3)[C@H]2C1 | 4.3 | 0.002 | – | – | – | –
25 | O=C(O)CCC/C=C1/C[C@H]2C[C@@H](O)[C@H](/C=N/NC(=O)Nc3ccc([N+](=O)[O-])cc3)[C@H]2C1 | 0.1 | 0.33 | – | – | – | –
26 | O=C(O)COC/C=C1\C[C@H]2C[C@@H](O)[C@H](/C=N/NC(=O)Nc3ccc(Cl)c(Cl)c3)[C@H]2C1 | 2.9 | 0.11 | – | – | – | –
27 | O=C(O)CCC/C=C1\C[C@H]2CC[C@H](/C=N/NC(=O)Nc3ccc([N+](=O)[O-])cc3)[C@H]2C1 | 2.2 | 0.01 | – | – | – | –
28 | O=C(O)CCC/C=C1\C[C@H]2C[C@@H](O)[C@H](/C=N/NC(=O)Nc3ccc(Cl)c(Cl)c3)[C@H]2C1 | 0.8 | 0.038 | – | – | – | –
29 | O=C(O)CCC/C=C1\C[C@H]2CC[C@H](/C=N/NC(=O)Nc3cccc(Cl)c3)[C@H]2C1 | 16 | 0.0007 | – | – | – | –
30 | O=C(O)CC/C=C1/C[C@H]2C[C@@H](O)[C@H](/C=N/NC(=O)Nc3ccccc3)[C@H]2C1 | 10 | 0.059 | – | – | – | –
31 | O=C(O)CCC/C=C1\C[C@H]2C[C@@H](O)[C@H](/C=N/NC(=O)Nc3ccccc3)[C@H]2C1 | 20 | 0.005 | – | – | – | –
32 | O=C(O)CCC/C=C1\C[C@H]2CC[C@H](/C=N/NC(=O)Nc3ccccc3)[C@H]2C1 | 40 | 0.0004 | – | – | – | –
33 | O=C(O)COC/C=C1/C[C@H]2C[C@@H](O)[C@H](/C=N/NC(=O)Nc3ccc([N+](=O)[O-])cc3)[C@H]2C1 | 0.9 | 1 | – | – | – | –
34 | O=C(O)CCC/C=C1/C[C@H]2C[C@@H](O)[C@H](/C=N/OCc3ccc4ccccc4c3)[C@H]2C1 | 90 | 0.002 | 76 | 2200 nM | – | –
35 | O=C(O)CCC/C=C1/C[C@H]2CC[C@H](/C=N/NC(=O)Nc3ccc([N+](=O)[O-])cc3)[C@H]2C1 | 0.7 | 0.01 | – | – | – | –
36 | O=C(O)CC/C=C1\C[C@H]2C[C@@H](O)[C@H](/C=N/NC(=O)Nc3ccc([N+](=O)[O-])cc3)[C@H]2C1 | 22 | 0.027 | – | – | – | –
37 | O=C(O)CC/C=C1/C[C@H]2C[C@@H](O)[C@H](/C=N/NC(=O)Nc3cccc(Cl)c3)[C@H]2C1 | 2.4 | 0.11 | – | – | – | –
38 | O=C(O)CCC/C=C1\C[C@H]2C[C@@H](O)[C@H](/C=N/OCc3ccc(F)cc3)[C@H]2C1 | > 1000 | 0.009 | 20 | 1900 nM | 1500 nM | –
39 | O=C(O)CCC/C=C1\C[C@H]2C[C@@H](O)[C@H](/C=N/NC(=O)Nc3cccc(Cl)c3)[C@H]2C1 | 1.6 | 0.09 | – | – | – | –
